Values quoted from earlier work, collected in patent US20220112625A1, “Diagnosing and Treating Neurological and Autoimmune Diseases by Optimizing Metabolic Responses” (priority 2017, published 2022).

How the values were obtained:
[1] = target: PI3Kα (Homo sapiens, UniProt P42336); conditions: PI3Kγ versus PI3Kα
[2] = target: PI3Kδ (Homo sapiens, UniProt O00329); conditions: PI3Kγ versus PI3Kδ
[3] = target: PI3Kβ (Homo sapiens, UniProt P42338); conditions: PI3Kγ versus PI3Kβ
[4] = target: mTOR (Homo sapiens, UniProt P42345); conditions: up to at least about 10 μM
[5] = system: class I and class II PI3Ks

Sequence of PI3Kβ (P42338 whole entry, species assumed): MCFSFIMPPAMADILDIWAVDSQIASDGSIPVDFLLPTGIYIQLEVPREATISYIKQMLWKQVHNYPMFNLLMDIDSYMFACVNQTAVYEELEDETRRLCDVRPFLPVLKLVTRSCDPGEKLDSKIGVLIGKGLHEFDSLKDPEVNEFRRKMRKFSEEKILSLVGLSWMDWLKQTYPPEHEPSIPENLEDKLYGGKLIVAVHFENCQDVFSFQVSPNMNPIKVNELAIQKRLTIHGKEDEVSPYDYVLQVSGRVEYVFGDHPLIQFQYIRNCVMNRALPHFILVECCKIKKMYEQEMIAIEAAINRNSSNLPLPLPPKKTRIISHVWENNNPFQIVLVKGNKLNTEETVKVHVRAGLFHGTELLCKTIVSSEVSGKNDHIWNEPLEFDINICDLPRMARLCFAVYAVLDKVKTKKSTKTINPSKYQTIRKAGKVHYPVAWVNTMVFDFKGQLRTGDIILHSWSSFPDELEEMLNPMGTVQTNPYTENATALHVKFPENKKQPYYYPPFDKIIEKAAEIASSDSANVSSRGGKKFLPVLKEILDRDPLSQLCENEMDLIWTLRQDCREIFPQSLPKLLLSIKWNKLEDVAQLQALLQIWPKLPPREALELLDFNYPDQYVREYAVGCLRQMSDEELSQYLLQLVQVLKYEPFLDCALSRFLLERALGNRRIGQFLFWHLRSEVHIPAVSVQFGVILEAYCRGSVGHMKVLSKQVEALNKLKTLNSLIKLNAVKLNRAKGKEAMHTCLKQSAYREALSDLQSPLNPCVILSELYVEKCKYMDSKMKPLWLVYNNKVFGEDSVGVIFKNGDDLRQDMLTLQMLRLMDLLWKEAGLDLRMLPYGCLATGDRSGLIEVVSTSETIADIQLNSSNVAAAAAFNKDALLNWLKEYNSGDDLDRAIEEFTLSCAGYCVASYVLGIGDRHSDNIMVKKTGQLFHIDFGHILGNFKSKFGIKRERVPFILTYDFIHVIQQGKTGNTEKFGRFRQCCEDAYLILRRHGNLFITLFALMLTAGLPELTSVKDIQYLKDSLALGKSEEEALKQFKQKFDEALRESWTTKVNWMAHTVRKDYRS
Sequence of PI3Kβ (P27986 whole entry partner, species assumed): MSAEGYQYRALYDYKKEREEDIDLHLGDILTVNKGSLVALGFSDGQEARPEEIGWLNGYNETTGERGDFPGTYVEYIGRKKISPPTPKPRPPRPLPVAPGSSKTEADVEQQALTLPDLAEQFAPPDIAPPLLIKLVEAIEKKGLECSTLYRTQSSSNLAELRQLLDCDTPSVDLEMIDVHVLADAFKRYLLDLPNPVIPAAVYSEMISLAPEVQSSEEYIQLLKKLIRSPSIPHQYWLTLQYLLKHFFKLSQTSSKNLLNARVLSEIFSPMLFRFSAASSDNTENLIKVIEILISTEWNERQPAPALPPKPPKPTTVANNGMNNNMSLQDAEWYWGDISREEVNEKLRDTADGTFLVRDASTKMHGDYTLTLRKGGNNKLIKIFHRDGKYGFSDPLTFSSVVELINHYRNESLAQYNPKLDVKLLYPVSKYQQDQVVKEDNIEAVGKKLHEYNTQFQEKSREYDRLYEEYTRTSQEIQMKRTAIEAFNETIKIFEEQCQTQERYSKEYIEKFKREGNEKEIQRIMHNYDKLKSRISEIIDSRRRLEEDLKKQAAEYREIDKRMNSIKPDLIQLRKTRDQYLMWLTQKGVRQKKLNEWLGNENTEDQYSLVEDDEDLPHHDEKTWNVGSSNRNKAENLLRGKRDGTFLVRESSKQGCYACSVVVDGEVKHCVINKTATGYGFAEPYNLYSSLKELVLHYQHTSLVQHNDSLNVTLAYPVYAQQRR
Sequence of PI3Kδ (O00329 whole entry, species assumed): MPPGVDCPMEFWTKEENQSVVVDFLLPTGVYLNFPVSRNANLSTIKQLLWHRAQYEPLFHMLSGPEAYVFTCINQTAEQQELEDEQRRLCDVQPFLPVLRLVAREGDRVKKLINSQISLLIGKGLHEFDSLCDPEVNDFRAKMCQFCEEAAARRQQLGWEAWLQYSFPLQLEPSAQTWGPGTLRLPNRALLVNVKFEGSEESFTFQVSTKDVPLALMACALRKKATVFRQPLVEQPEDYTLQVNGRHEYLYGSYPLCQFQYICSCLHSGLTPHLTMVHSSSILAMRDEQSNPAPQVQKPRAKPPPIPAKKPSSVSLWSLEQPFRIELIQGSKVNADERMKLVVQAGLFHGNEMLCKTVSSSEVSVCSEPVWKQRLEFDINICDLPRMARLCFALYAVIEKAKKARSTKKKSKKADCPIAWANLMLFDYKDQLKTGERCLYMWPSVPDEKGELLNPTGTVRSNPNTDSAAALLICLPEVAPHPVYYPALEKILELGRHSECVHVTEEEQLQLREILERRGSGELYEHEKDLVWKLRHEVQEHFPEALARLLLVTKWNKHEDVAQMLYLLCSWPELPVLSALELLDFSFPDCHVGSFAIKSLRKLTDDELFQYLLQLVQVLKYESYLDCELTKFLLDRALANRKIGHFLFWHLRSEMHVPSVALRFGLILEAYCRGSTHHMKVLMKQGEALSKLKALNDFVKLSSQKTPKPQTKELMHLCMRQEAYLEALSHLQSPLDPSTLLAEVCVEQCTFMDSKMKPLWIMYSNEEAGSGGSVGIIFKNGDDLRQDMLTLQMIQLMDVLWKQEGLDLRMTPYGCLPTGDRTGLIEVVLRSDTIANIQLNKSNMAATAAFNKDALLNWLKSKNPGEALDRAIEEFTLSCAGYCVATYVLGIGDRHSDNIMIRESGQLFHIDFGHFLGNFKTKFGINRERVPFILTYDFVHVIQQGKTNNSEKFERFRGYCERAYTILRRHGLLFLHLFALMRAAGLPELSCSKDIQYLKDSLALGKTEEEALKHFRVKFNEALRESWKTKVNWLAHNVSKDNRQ
Sequence of PI3Kδ (P27986 whole entry partner, species assumed): as the sequence (P27986 whole entry partner, species assumed) above
Sequence of PI3Kα (P42336 whole entry, species assumed): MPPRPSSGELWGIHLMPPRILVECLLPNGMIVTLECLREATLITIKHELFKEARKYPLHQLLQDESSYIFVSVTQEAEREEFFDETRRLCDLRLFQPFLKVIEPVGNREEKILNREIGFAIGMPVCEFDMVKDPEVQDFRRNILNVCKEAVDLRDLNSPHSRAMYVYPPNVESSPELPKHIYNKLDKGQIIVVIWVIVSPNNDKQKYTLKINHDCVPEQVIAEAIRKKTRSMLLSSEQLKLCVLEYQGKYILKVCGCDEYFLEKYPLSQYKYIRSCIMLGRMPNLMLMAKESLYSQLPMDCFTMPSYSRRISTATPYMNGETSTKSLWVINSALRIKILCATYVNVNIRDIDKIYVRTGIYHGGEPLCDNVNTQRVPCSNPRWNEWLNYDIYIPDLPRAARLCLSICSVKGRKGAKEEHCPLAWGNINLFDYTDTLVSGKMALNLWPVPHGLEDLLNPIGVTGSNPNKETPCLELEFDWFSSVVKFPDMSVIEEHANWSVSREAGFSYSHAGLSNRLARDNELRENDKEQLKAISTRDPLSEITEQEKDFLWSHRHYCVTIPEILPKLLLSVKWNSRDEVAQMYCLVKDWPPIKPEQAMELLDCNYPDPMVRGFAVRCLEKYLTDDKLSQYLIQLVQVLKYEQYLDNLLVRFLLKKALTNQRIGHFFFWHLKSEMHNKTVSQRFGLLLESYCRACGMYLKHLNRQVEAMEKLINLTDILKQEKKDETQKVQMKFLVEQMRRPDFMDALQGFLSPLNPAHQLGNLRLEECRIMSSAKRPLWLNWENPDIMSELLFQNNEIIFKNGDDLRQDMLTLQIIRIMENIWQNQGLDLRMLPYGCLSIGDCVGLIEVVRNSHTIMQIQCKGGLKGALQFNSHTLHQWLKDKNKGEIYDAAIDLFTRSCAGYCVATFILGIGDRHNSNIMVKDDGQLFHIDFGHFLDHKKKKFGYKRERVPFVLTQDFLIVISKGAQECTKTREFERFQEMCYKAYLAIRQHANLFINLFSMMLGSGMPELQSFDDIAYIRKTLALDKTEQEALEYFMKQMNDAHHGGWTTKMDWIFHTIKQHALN
Sequence of PI3Kα (P27986 whole entry partner, species assumed): as the sequence (P27986 whole entry partner, species assumed) above

CC(C)(C)NS(=O)(=O)c1cncc(-c2cc(F)c3nc(N)nn3c2)c1 [CZC24832, 5-(2-amino-8-fluoro [1,2,4]triazolo[1,5-a]pyridin-6-yl)-N-(1,1-dimethylethyl)-3-pyridinesulfonamide]
selectivity over PI3Kα [1]: > 100 fold | selectivity over PI3Kδ [2]: > 100 fold | selectivity over PI3Kβ [3]: 10 fold

C[C@@H]1COCCN1c1cc(=O)n2c(n1)N(Cc1cncc(Cl)c1)[C@H](C(F)(F)F)CC2 [SAR405, (8S)-9-[(5-chloro-3-pyridinyl)methyl]-6,7,8,9-tetrahydro-2-[(3R)-3-methyl-4-morpholinyl]-8-(trifluoromethyl)-4H-pyrimido[1,2-a]pyrimidin-4-one]
effect on mTOR [4]: no effect | effect on class I and class II PI3Ks ([5]; up to at least about 10 μM): no effect

CC(C)(O)CNc1ncc(-c2ccnc(Nc3ccnc(Cl)c3)n2)c(CC2CC2)n1 [VPS34-IN1, 1-[[2-[(2-chloro-4-pyridinyl)amino]-4′-(cyclopropylmethyl)[4,5′-bipyrimidin]-2′-yl]amino]-2-methyl-2-Propanol]
inhibition of the isoforms of class I as well as class II PI3Ks [5]: does not significantly inhibit
